Legend:
[1] = wn = mass fraction of the nth substance listed; settings: 98 kPa, Liquid, Capillary tube (Ostwald / Ubbelohde) method
[2] = Liquid; for mass density: 101.33 kPa, Pycnometric method; for vapor or sublimation pressure: Langmuir

CCCCn1cc[n+](C)c1.F[B-](F)(F)F [1-butyl-3-methylimidazolium tetrafluoroborate] + O
kinematic viscosity [m2/s], [1]
Settings	w2 = 0.0033	w2 = 0.0097	w2 = 0.0181	w2 = 0.0258	w2 = 0.0345	w2 = 0.0488	w2 = 0.0552	w2 = 0.066
303.2 K	5.78e-05	4.53e-05	3.44e-05	2.89e-05	2.26e-05	1.64e-05	1.52e-05	1.39e-05
313.2 K	3.76e-05	3.02e-05	2.37e-05	2.02e-05	1.62e-05	1.2e-05	1.12e-05	1.02e-05
323.2 K	2.59e-05	2.14e-05	1.73e-05	1.48e-05	1.22e-05	9.2e-06	8.6e-06	7.9e-06
333.2 K	1.86e-05	1.54e-05	1.28e-05	1.13e-05	9.4e-06	7.2e-06	6.8e-06	6.2e-06
343.2 K	1.39e-05	1.21e-05	1e-05	8.8e-06	7.5e-06	5.9e-06	5.5e-06	5.1e-06
353.2 K	1.08e-05	9.8e-06	8e-06	7.2e-06	6.2e-06	4.9e-06	4.6e-06	4.2e-06
363.2 K	8.6e-06	7.7e-06	6.5e-06	5.8e-06	5.1e-06	4.1e-06	3.9e-06	3.6e-06

COP(=O)([O-])OC.Cn1cc[n+](C)c1 [1,3-dimethylimidazolium dimethylphosphate]
[2]
Settings	mass density [kg/m3]
293.2 K	1260
303.2 K	1253
313.2 K	1246
323.2 K	1239
333.2 K	1232
343.2 K	1225
353.2 K	1218
363.2 K	1211

CCOCCOCCOS(=O)(=O)[O-].CCn1cc[n+](C)c1 [1-ethyl-3-methylimidazolium 2-(2-ethoxyethoxy)ethylsulfate]
[2]
Settings	mass density [kg/m3]	vapor or sublimation pressure [kPa]
293.2 K	1215	–
303.2 K	1207	–
313.2 K	1200	–
323.2 K	1193	–
333.2 K	1185	–
343.2 K	1178	–
353.2 K	1170	–
363.2 K	1164	–
419.7 K	–	3.4e-09
429 K	–	3.8e-09
430.1 K	–	5.6e-09
430.7 K	–	4.9e-09
436.4 K	–	1.3e-08
438.3 K	–	8.7e-09
438.4 K	–	1.1e-08
438.5 K	–	1.1e-08
440.2 K	–	1.4e-08
445.7 K	–	2.6e-08
445.8 K	–	2.5e-08
448.1 K	–	2.1e-08

CCCCn1cc[n+](C)c1.F[B-](F)(F)F [1-butyl-3-methylimidazolium tetrafluoroborate]
[2]
Settings	vapor or sublimation pressure [kPa]
396.3 K	7.2e-10
403.7 K	9.9e-10
412.1 K	2.3e-09
413.6 K	1.8e-09
415.4 K	2.8e-09
421.6 K	4.3e-09
424.9 K	6.3e-09
437.3 K	1.9e-08
437.6 K	1.5e-08
446.4 K	3.7e-08
447.3 K	4e-08
447.7 K	3.9e-08
457.2 K	8.3e-08
457.5 K	8.7e-08
464.7 K	1.5e-07
465 K	1.7e-07
465.5 K	1.6e-07

CCOCCOCCOS(=O)(=O)[O-].CCn1cc[n+](C)c1 [1-ethyl-3-methylimidazolium 2-(2-ethoxyethoxy)ethylsulfate] + O
kinematic viscosity [m2/s], [1]
Settings	w2 = 0.0019	w2 = 0.0085	w2 = 0.0195	w2 = 0.0251	w2 = 0.0353	w2 = 0.0495	w2 = 0.0569	w2 = 0.0663
303.2 K	0.000128	0.000103	7.64e-05	6.69e-05	5.26e-05	4.17e-05	3.84e-05	3.34e-05
313.2 K	7.46e-05	6.17e-05	4.74e-05	4.22e-05	3.38e-05	2.73e-05	2.52e-05	2.24e-05
323.2 K	4.76e-05	4.02e-05	3.17e-05	2.83e-05	2.31e-05	1.92e-05	1.76e-05	1.58e-05
333.2 K	3.23e-05	2.78e-05	2.23e-05	2.02e-05	1.67e-05	1.41e-05	1.29e-05	1.18e-05
343.2 K	2.32e-05	2.02e-05	1.65e-05	1.51e-05	1.26e-05	1.08e-05	9.8e-06	9.1e-06
353.2 K	1.81e-05	1.53e-05	1.26e-05	1.17e-05	9.9e-06	8.5e-06	7.8e-06	7.3e-06
363.2 K	1.34e-05	1.16e-05	1e-05	9.3e-06	7.9e-06	6.9e-06	6.3e-06	5.9e-06

Source: the NIST ThermoML archive (doi:10.1021/acs.jced.5b00806)
